From ChEMBL document CHEMBL1149667, “Synthesis of ferulic ester dimers, functionalisation and biological evaluation as potential antiatherogenic and antiplasmodial agents” (Bioorg Med Chem, 2007)
Calls of active or inactive are those of the source. No cut-off for these calls is given here.

Assays:
[1] = (§1) Cytoprotective effect on HMEC1 cells assessed as cell viability at 10 uM after 24 hrs by MTT assay; type: functional; settings: Homo sapiens, HMEC-1, 24 h, read-out: Activity
Plasmodium falciparum [2] = assay: Antiplasmodial activity against Plasmodium falciparum FCM29 at 10 ug/mL as [3H]hypoxanthine uptake; type: functional
P388 [3] = assay: Cytotoxicity against mouse P388 cells at 10 ug/mL after 72 hrs; type: functional; settings: P388, 72 h
HMEC-1 [4] = assay: Effect on HMEC1 cells-mediated LDL oxidation at 100 uM after 6 hrs by TBARS assay; type: functional, cell-based; settings: Homo sapiens
HMEC-1 [5] = assay: (§2) Cytoprotective effect on HMEC1 cells assessed as cell viability by MTT assay; type: functional; settings: Homo sapiens
HMEC-1 [6] = assay: Effect on HMEC1 cells-mediated LDL oxidation at 10 uM after 6 hrs by TBARS assay; type: functional
[7] = as §2; type: functional, Homo sapiens, HMEC-1
P388 [8] = assay: Cytotoxicity against mouse P388 cells after 72 hrs; type: functional, cell-based; settings: P388, 72 h
Plasmodium falciparum [9] = assay: Antiplasmodial activity against Plasmodium falciparum FCM29 by [3H]hypoxanthine uptake; type: functional, organism-based
HMEC-1 [10] = assay: as §1; type: functional; settings: Homo sapiens

Row | IC50 (Plasmodium falciparum [9]) | Compound | viability at 10 µM [1] | inhibition at 10 µg/mL (Plasmodium falciparum [2]) | inhibition at 10 µg/mL (P388 [3]) | Activity (HMEC-1 [4]) | Activity (HMEC-1 [5]) | Activity (HMEC-1 [6]; Homo sapiens) | Activity [7] | Activity (HMEC-1 [6]) | IC50 (P388 [8]) | Activity (HMEC-1 [10])
1 |  | COC(=O)/C=C/c1cc(OC)c2c(c1)C(CO)C(c1ccc(O)c(OC)c1)O2 (stereo not drawn) | 40% | 25.7% | 8.63% | Active |  |  |  |  |  | 
2 |  | COC(=O)/C=C/c1ccc(O/C(=C\c2ccc(O)c(OC)c2)C(=O)OC)c(OC)c1 | 40% | 23.8% | 0% |  | Active | Active |  |  |  | 
3 |  | CC(C)(Sc1cc(C(C)(C)C)c(O)c(C(C)(C)C)c1)Sc1cc(C(C)(C)C)c(O)c(C(C)(C)C)c1 [PROBUCOL] | 55% |  |  |  |  |  | 92% | 10% |  | 
4 |  | CC[C@@]1(O)C(=O)OCc2c1cc1n(c2=O)Cc2cc3ccccc3nc2-1 [CAMPTOTHECIN] |  |  |  |  |  |  |  |  | 32.1 nM | 
5 | 798 nM | COC(=O)/C=C/c1cc(OC)c2c(c1)C(COC(=O)c1cc(O)c(O)c(O)c1)C(c1ccc(O)c(OC)c1)O2 (stereo not drawn) | 40% | 93.7% | 16.4% |  |  |  | 59.9% | 2.2% |  | 
6 |  | COC(=O)/C=C/c1cc(OC)c2c(c1)C(C(=O)OC)C(c1ccc(O)c(OC)c1)O2 (stereo not drawn) | 40% | 0% | 85.2% |  | Active | Active |  |  | 772 nM | 
7 |  | VITAMIN E |  |  |  |  | 29% | 55% |  |  |  | 40%
